Data reported in ChEMBL document CHEMBL1944566, “Conjugation of cell-penetrating peptides leads to identification of anti-HIV peptides from matrix proteins” (Bioorg Med Chem, 2012).
Where a SMILES comes first, the peptide text is derived from it. The star is where a group is joined. Cam = NC(=O)C*

Columns and labels:
[1] = Cytotoxicity against human MT4 cells after 5 days by MTT assay; assay type: cell-based
[2] = test system: Human immunodeficiency virus 1; assay: Antiviral activity against X4 tropic HIV1 NL4-3 in MT4 cells assessed as protection from virus-induced cytopathogenicity after 5 days by MTT assay; assay type: functional, organism-based; settings: Human immunodeficiency virus 1, NL4-3, MT4, 120 h
[3] = test system: Human immunodeficiency virus 1; assay: Antiviral activity against R5 tropic HIV1 JR-CSF in PM1/CCR5 cells assessed as protection from virus-induced cytopathogenicity measuring capsid p24 level after 5 days by ELISA; assay type: functional, cell-based; settings: Human immunodeficiency virus 1, JRCSF ISOLATE, PM1/CCR5, 120 h
[4] = test system: Human immunodeficiency virus 1; assay: Antiviral activity against R5 tropic HIV1 NL(AD8) in PM1/CCR5 cells assessed as protection from virus-induced cytopathogenicity after 5 days by MTT assay; assay type: functional, organism-based; settings: Human immunodeficiency virus 1, NL(AD8), PM1/CCR5, 120 h
[5] = test system: Human immunodeficiency virus 1; assay: Antiviral activity against R5 tropic HIV1 NL(AD8) in PM1/CCR5 cells assessed as protection from virus-induced cytopathogenicity at 50 uM after 5 days by MTT assay; assay type: functional; settings: Human immunodeficiency virus 1, NL(AD8), PM1/CCR5, 120 h

SMILES | CC50 at 120 h [1] [µM] | EC50 [2] [µM] | EC50 [3] [µM] | EC50 [4] [µM] | inhibition at 50 µM [5] [%]
CC(=O)N[C@@H](CC(C)C)C(=O)N[C@@H](CCC(=O)O)C(=O)N[C@@H](CCCNC(=N)N)C(=O)N[C@@H](Cc1ccccc1)C(=O)N[C@@H](C)C(=O)N[C@H](C(=O)N[C@@H](CC(N)=O)C(=O)N1CCC[C@H]1C(=O)NCC(=O)N[C@@H](CC(C)C)C(=O)N[C@@H](CC(C)C)C(=O)N[C@@H](CCC(=O)O)C(=O)N[C@H](C(=O)N[C@@H](CO)C(=O)N[C@@H](CCC(=O)O)C(=O)NCC(=O)N[C@@H](CSCC(N)=O)C(N)=O)[C@@H](C)O)C(C)C (Ac-LERFAVNPGLLETSEGC(Cam)-NH2) | > 50 | > 50 |  |  | 
CSCC[C@H](N)C(=O)NCC(=O)N[C@@H](C)C(=O)N[C@@H](CCCNC(=N)N)C(=O)N[C@@H](C)C(=O)N[C@@H](CO)C(=O)N[C@H](C(=O)N[C@@H](CC(C)C)C(=O)N[C@@H](CO)C(=O)NCC(=O)NCC(=O)N[C@@H](CCC(=O)O)C(=O)N[C@@H](CC(C)C)C(=O)N[C@@H](CC(=O)O)C(=O)N[C@@H](CCCCN)C(=O)NCC(=O)N[C@@H](CSCC(N)=O)C(N)=O)C(C)C (H-MGARASVLSGGELDKGC(Cam)-NH2) | > 50 | > 50 |  |  | 
CC[C@H](C)[C@H](NC(=O)[C@H](Cc1cnc[nH]1)NC(=O)[C@H](CCCCN)NC(=O)[C@H](CC(C)C)NC(=O)[C@H](CCCCN)NC(=O)[C@H](Cc1ccc(O)cc1)NC(=O)[C@H](CCC(N)=O)NC(=O)[C@H](CCCCN)NC(=O)[C@H](CCCCN)NC(=O)CNC(=O)CNC(=O)[C@@H]1CCCN1C(=O)[C@H](CCCNC(=N)N)NC(=O)[C@H](CC(C)C)NC(C)=O)C(=O)N[C@H](C(=O)NCC(=O)N[C@@H](CSCC(N)=O)C(N)=O)C(C)C | > 50 | > 50 |  |  | 
CC(=O)N[C@@H](CC(=O)O)C(=O)N[C@H](C(=O)NCC(=O)N[C@@H](CC(N)=O)C(=O)N[C@@H](CC(N)=O)C(=O)N[C@@H](CO)C(=O)N[C@@H](CCC(N)=O)C(=O)N[C@H](C(=O)N[C@@H](CO)C(=O)N[C@@H](CCC(N)=O)C(=O)N[C@@H](CC(N)=O)C(=O)N[C@@H](Cc1ccc(O)cc1)C(=O)NCC(=O)N[C@@H](CSCC(=O)N[C@@H](CCCNC(=N)N)C(=O)N[C@@H](CCCNC(=N)N)C(=O)N[C@@H](CCCNC(=N)N)C(=O)N[C@@H](CCCNC(=N)N)C(=O)N[C@@H](CCCNC(=N)N)C(=O)N[C@@H](CCCNC(=N)N)C(=O)N[C@@H](CCCNC(=N)N)C(=O)N[C@@H](CCCNC(=N)N)C(N)=O)C(N)=O)C(C)C)[C@@H](C)O | > 50 | 20 | 11 | 0.43 | 
CC[C@H](C)[C@H](NC(=O)[C@H](Cc1cnc[nH]1)NC(=O)[C@H](CCCCN)NC(=O)[C@H](CC(C)C)NC(=O)[C@H](CCCCN)NC(=O)[C@H](Cc1ccc(O)cc1)NC(=O)[C@H](CCC(N)=O)NC(=O)[C@H](CCC(=O)O)NC(=O)[C@H](Cc1c[nH]c2ccccc12)NC(=O)[C@H](CCCCN)NC(=O)[C@H](CC(=O)O)NC(=O)[C@H](CC(C)C)NC(=O)[C@H](CCC(=O)O)NC(=O)CNC(C)=O)C(=O)N[C@H](C(=O)NCC(=O)N[C@@H](CSCC(N)=O)C(N)=O)C(C)C (Ac-GELDKWEQYKLKHIVGC(Cam)-NH2) | > 50 | > 50 |  |  | 
CC(=O)N[C@@H](CC(C)C)C(=O)NCC(=O)N[C@@H](CCC(N)=O)C(=O)N[C@@H](CC(C)C)C(=O)N[C@@H](CCC(N)=O)C(=O)N1CCC[C@H]1C(=O)N[C@@H](CO)C(=O)N[C@@H](CC(C)C)C(=O)N[C@@H](CCC(N)=O)C(=O)N[C@H](C(=O)NCC(=O)N[C@@H](CO)C(=O)N[C@@H](CCC(=O)O)C(=O)N[C@@H](CCC(=O)O)C(=O)N[C@@H](CC(C)C)C(=O)NCC(=O)N[C@@H](CSCC(N)=O)C(N)=O)[C@@H](C)O (Ac-LGQLQPSLQTGSEELGC(Cam)-NH2) | > 50 | > 50 |  |  | 
CC[C@H](C)[C@H](NC(=O)[C@H](CCC(N)=O)NC(=O)[C@H](CCCNC(=N)N)NC(=O)[C@H](CO)NC(=O)CNC(=O)[C@H](CCC(=O)O)NC(=O)[C@H](CO)NC(=O)[C@@H](NC(=O)[C@H](CCC(=O)O)NC(=O)[C@H](CC(C)C)NC(C)=O)[C@@H](C)O)C(=O)N[C@@H](CC(C)C)C(=O)NCC(=O)N[C@@H](CCC(N)=O)C(=O)N[C@@H](CC(C)C)C(=O)N[C@@H](CCC(N)=O)C(=O)NCC(=O)N[C@@H](CSCC(=O)N[C@@H](CCCNC(=N)N)C(=O)N[C@@H](CCCNC(=N)N)C(=O)N[C@@H](CCCNC(=N)N)C(=O)N[C@@H](CCCNC(=N)N)C(=O)N[C@@H](CCCNC(=N)N)C(=O)N[C@@H](CCCNC(=N)N)C(=O)N[C@@H](CCCNC(=N)N)C(=O)N[C@@H](CCCNC(=N)N)C(N)=O)C(N)=O | > 50 | 40 | 31 |  | 49
Cc1cn([C@H]2C[C@H](N=[N+]=[N-])[C@@H](CO)O2)c(=O)[nH]c1=O [ZIDOVUDINE] | > 100 | 0.02 | 0.17 | 0.459 | 
CSCC[C@H](N)C(=O)NCC(=O)N[C@@H](C)C(=O)N[C@@H](CCCNC(=N)N)C(=O)N[C@@H](C)C(=O)N[C@@H](CO)C(=O)N[C@H](C(=O)N[C@@H](CC(C)C)C(=O)N[C@@H](CO)C(=O)NCC(=O)NCC(=O)N[C@@H](CCC(=O)O)C(=O)N[C@@H](CC(C)C)C(=O)N[C@@H](CC(=O)O)C(=O)N[C@@H](CCCCN)C(=O)NCC(=O)N[C@@H](CSCC(=O)N[C@@H](CCCNC(=N)N)C(=O)N[C@@H](CCCNC(=N)N)C(=O)N[C@@H](CCCNC(=N)N)C(=O)N[C@@H](CCCNC(=N)N)C(=O)N[C@@H](CCCNC(=N)N)C(=O)N[C@@H](CCCNC(=N)N)C(=O)N[C@@H](CCCNC(=N)N)C(=O)N[C@@H](CCCNC(=N)N)C(N)=O)C(N)=O)C(C)C | > 50 | 30 | 40 | 30 | 
CC(=O)N[C@@H](CC(C)C)C(=O)N[C@@H](CCC(=O)O)C(=O)N[C@@H](CCCNC(=N)N)C(=O)N[C@@H](Cc1ccccc1)C(=O)N[C@@H](C)C(=O)N[C@H](C(=O)N[C@@H](CC(N)=O)C(=O)N1CCC[C@H]1C(=O)NCC(=O)N[C@@H](CC(C)C)C(=O)N[C@@H](CC(C)C)C(=O)N[C@@H](CCC(=O)O)C(=O)N[C@H](C(=O)N[C@@H](CO)C(=O)N[C@@H](CCC(=O)O)C(=O)NCC(=O)N[C@@H](CSCC(=O)N[C@@H](CCCNC(=N)N)C(=O)N[C@@H](CCCNC(=N)N)C(=O)N[C@@H](CCCNC(=N)N)C(=O)N[C@@H](CCCNC(=N)N)C(=O)N[C@@H](CCCNC(=N)N)C(=O)N[C@@H](CCCNC(=N)N)C(=O)N[C@@H](CCCNC(=N)N)C(=O)N[C@@H](CCCNC(=N)N)C(N)=O)C(N)=O)[C@@H](C)O)C(C)C | > 50 | 40 | 42 |  | 42
CC[C@H](C)[C@H](NC(=O)[C@H](CCCCN)NC(=O)[C@H](CCC(=O)O)NC(=O)[C@H](Cc1c[nH]c2ccccc12)NC(=O)[C@H](CCCCN)NC(=O)[C@H](CC(=O)O)NC(=O)[C@H](CC(C)C)NC(=O)[C@H](CCC(=O)O)NC(=O)CNC(C)=O)C(=O)N[C@@H](CCCNC(=N)N)C(=O)N[C@@H](CC(C)C)C(=O)N[C@@H](CCCNC(=N)N)C(=O)N1CCC[C@H]1C(=O)NCC(=O)NCC(=O)NCC(=O)N[C@@H](CSCC(N)=O)C(N)=O | > 50 | 17 |  | 1 | 
CC[C@H](C)[C@H](NC(=O)[C@H](CCCCN)NC(=O)[C@H](CC(=O)O)NC(=O)[C@H](CC(C)C)NC(C)=O)C(=O)N[C@@H](CCC(=O)O)C(=O)N[C@@H](CCC(=O)O)C(=O)N[C@@H](CCC(=O)O)C(=O)N[C@@H](CCC(N)=O)C(=O)N[C@@H](CC(N)=O)C(=O)N[C@@H](CCCCN)C(=O)N[C@@H](CO)C(=O)N[C@@H](CCCCN)C(=O)N[C@@H](CCCCN)C(=O)N[C@@H](CCCCN)C(=O)N[C@@H](C)C(=O)NCC(=O)N[C@@H](CSCC(N)=O)C(N)=O (Ac-LDKIEEEQNKSKKKAGC(Cam)-NH2) | > 50 | > 50 |  |  | 
CC[C@H](C)[C@H](NC(=O)[C@H](CCCCN)NC(=O)[C@H](CCC(=O)O)NC(=O)[C@H](Cc1c[nH]c2ccccc12)NC(=O)[C@H](CCCCN)NC(=O)[C@H](CC(=O)O)NC(=O)[C@H](CC(C)C)NC(=O)[C@H](CCC(=O)O)NC(=O)CNC(C)=O)C(=O)N[C@@H](CCCNC(=N)N)C(=O)N[C@@H](CC(C)C)C(=O)N[C@@H](CCCNC(=N)N)C(=O)N1CCC[C@H]1C(=O)NCC(=O)NCC(=O)NCC(=O)N[C@@H](CSCC(=O)N[C@@H](CCCNC(=N)N)C(=O)N[C@@H](CCCNC(=N)N)C(=O)N[C@@H](CCCNC(=N)N)C(=O)N[C@@H](CCCNC(=N)N)C(=O)N[C@@H](CCCNC(=N)N)C(=O)N[C@@H](CCCNC(=N)N)C(=O)N[C@@H](CCCNC(=N)N)C(=O)N[C@@H](CCCNC(=N)N)C(N)=O)C(N)=O | 32 | 21 |  | > 31 | 
COC[C@@H](c1ccc(C(F)(F)F)cc1)N1CCN(C2(C)CCN(C(=O)c3c(C)ncnc3C)CC2)C[C@@H]1C [VICRIVIROC] |  |  | 0.0014 | 0.026 | 
CC(=O)N[C@@H](CO)C(=O)N[C@@H](CCCCN)C(=O)N[C@@H](CCCCN)C(=O)N[C@@H](CCCCN)C(=O)N[C@@H](C)C(=O)N[C@@H](CCC(N)=O)C(=O)N[C@@H](CCC(N)=O)C(=O)N[C@@H](C)C(=O)N[C@@H](C)C(=O)N[C@@H](C)C(=O)N[C@@H](CC(=O)O)C(=O)N[C@H](C(=O)NCC(=O)N[C@@H](CC(N)=O)C(=O)N[C@@H](CC(N)=O)C(=O)NCC(=O)N[C@@H](CSCC(N)=O)C(N)=O)[C@@H](C)O | > 50 | > 50 |  |  | 
